Assay results taken from US20200024278A1, “COMPOSITION COMPRISING ANTIBIOTIC COMPOUND AND AN HETEROCYCLIC COMPOUND AND THEIR USE IN PREVENTING OR TREATING BACTERIAL INFECTIONS” (MUTABILIS, priority 2016, published 2020).

What was measured:
Assay in all cases: MIC, broth microdilution (CLSI), substance alone or ATB combined with compound at 4 or 8 μg/mL
[1] = tested on: ECO 190317; format: cell-based, E. coli; details: ECO 190317; for MIC ATB combined with Example: Example @4 μg/ml
Summary of the method: (§1)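 CLSI broth microdilution in cation-adjusted Mueller-Hinton broth, 5·10^5 CFU/mL log-phase inoculum, 16-20 h at 35 °C in ambient air. Fosfomycin assays supplemented with 25 μg/ml glucose-6-phosphate.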

[2] = tested on: ECO UFR39; format: cell-based, E. coli; details: ECO UFR39; for MIC ATB combined with Example: Example @4 μg/ml; for MIC ATB combined with Example compound: compound @4 μg/ml
Summary of the method: as §1

[3] = tested on: KPN 6299; format: cell-based, K. pneumoniae; details: for MIC ATB combined with Example: Example @4 μg/ml
Summary of the method: as §1

[4] = tested on: KPN BAA-1898; format: cell-based, K. pneumoniae; details: KPN BAA-1898; for MIC ATB combined with Example: Example @4 μg/ml
Summary of the method: as §1

[5] = tested on: KPN UFR42; format: cell-based, K. pneumoniae; details: KPN UFR42; for MIC ATB combined with Example: Example @4 μg/ml; for MIC ATB combined with Example compound: compound @4 μg/ml
Summary of the method: as §1

[6] = tested on: ECL P99; format: cell-based, E. cloacae; details: ECL P99; for MIC ATB combined with Example: Example @4 μg/ml
Summary of the method: as §1

[7] = tested on: PAE 105250; format: cell-based, P. aeruginosa; details: PAE 105250; for MIC ATB combined with Example: Example @4 μg/ml; for MIC ATB combined with Example compound: compound @4 μg/ml
Summary of the method: as §1

[8] = tested on: PAE UFR48; format: cell-based, P. aeruginosa; details: PAE UFR48; for MIC ATB combined with Example: Example @4 μg/ml; for MIC ATB combined with Example compound: compound @4 μg/ml
Summary of the method: as §1

[9] = tested on: PAE UFR90; format: cell-based, P. aeruginosa; details: PAE UFR90; for MIC ATB combined with Example: Example @4 μg/ml; for MIC ATB combined with Example compound: compound @4 μg/ml
Summary of the method: as §1

[10] = tested on: SAU 29213; format: cell-based, S. aureus; details: for MIC ATB combined with Example / MIC ATB combined with Example compound: SAU 29213; for MIC ATB combined with Example: Example @4 μg/ml; for MIC ATB combined with Example compound: compound @4 μg/ml
Summary of the method: as §1

[11] = tested on: SPN 49619; format: cell-based, S. pneumoniae; details: SPN 49619; for MIC ATB combined with Example: Example @4 μg/ml; for MIC ATB combined with Example compound: compound @4 μg/ml
Summary of the method: as §1

[12] = tested on: ABA 19606; format: cell-based, A. baumannii; details: Acinetobacter baumannii, substance alone, read-out: MIC
Summary of the method: as §1

[13] = tested on: ABA UFR161; format: cell-based, A. baumannii; details: Acinetobacter baumannii, substance alone, read-out: MIC
Summary of the method: as §1

[14] = Escherichia coli, substance alone, read-out: MIC
[15] = Pseudomonas aeruginosa, substance alone, read-out: MIC

MIC ATB combined with Example ([1]; ATB ATM): <0.031 µg/mL
MIC ATB combined with Example ([1]; ATB FEP): <0.031 µg/mL
MIC ATB combined with Example ([1]; ATB FOS): <0.125 µg/mL
MIC ATB combined with Example ([1]; ATB MEM): <0.031 µg/mL
MIC ATB combined with Example ([1]; ATB PIP): <0.031 µg/mL
MIC [1, 14]: 1 µg/mL
MIC ATB combined with Example compound ([1]; MIC of CIP, compound @4 μg/ml): <0.031 µg/mL
MIC ATB combined with Example ([2]; ATB ATM): <0.031 µg/mL
MIC ATB combined with Example ([2]; ATB FEP): <0.031 µg/mL
MIC ATB combined with Example ([2]; ATB FOS): <=0.125 μg/mL
MIC ATB combined with Example ([2]; ATB MEM): <0.031 µg/mL
MIC ATB combined with Example ([2]; ATB PIP): <0.031 µg/mL
MIC [2, 14]: 2 µg/mL
MIC ATB combined with Example compound ([2]; MIC of CIP): <=0.031 μg/mL
MIC ATB combined with Example compound ([2]; MIC of CPO): <=0.031 μg/mL
MIC ATB combined with Example ([3]; ATB ATM): <0.031 µg/mL
MIC ATB combined with Example ([3]; ATB FEP): <=0.25 μg/mL
MIC ATB combined with Example ([3]; ATB FOS): <=0.125 μg/mL
MIC ATB combined with Example ([3]; ATB MEM): <0.031 µg/mL
MIC ATB combined with Example ([3]; ATB PIP): <0.031 µg/mL
MIC ATB combined with Example compound ([3]; MIC of CIP, compound @4 μg/ml): 0.063 µg/mL
MIC ATB combined with Example ([4]; ATB ATM): <0.031 µg/mL
MIC ATB combined with Example ([4]; ATB FEP): <0.031 µg/mL
MIC ATB combined with Example ([4]; ATB FOS): 0.25 µg/mL
MIC ATB combined with Example ([4]; ATB MEM): <0.031 µg/mL
MIC ATB combined with Example ([4]; ATB PIP): <0.031 µg/mL
MIC ([4]; Klebsiella pneumoniae, BAA1898, substance alone, read-out: MIC): 4 µg/mL
MIC ATB combined with Example compound ([4]; MIC of CIP, compound @4 μg/ml): <=0.031 μg/mL
MIC ATB combined with Example ([5]; ATB ATM): <0.031 µg/mL
MIC ATB combined with Example ([5]; ATB FEP): <0.031 µg/mL
MIC ATB combined with Example ([5]; ATB FOS): <=0.125 μg/mL
MIC ATB combined with Example ([5]; ATB MEM): <0.031 µg/mL
MIC ATB combined with Example ([5]; ATB PIP): <0.031 µg/mL
MIC ([5]; Klebsiella pneumoniae, substance alone, read-out: MIC): 4 µg/mL
MIC ATB combined with Example compound ([5]; MIC of CIP): >32 µg/mL
MIC ATB combined with Example compound ([5]; MIC of CPO): <=0.031 μg/mL
MIC ATB combined with Example ([6]; ATB ATM): <0.031 µg/mL
MIC ATB combined with Example ([6]; ATB FEP): <0.031 µg/mL
MIC ATB combined with Example ([6]; ATB FOS): <=0.125 μg/mL
MIC ATB combined with Example ([6]; ATB MEM): <0.031 µg/mL
MIC ATB combined with Example ([6]; ATB PIP): <0.031 µg/mL
MIC ([6]; Enterobacter cloacae, substance alone, read-out: MIC): 2 µg/mL
MIC ATB combined with Example compound ([6]; MIC of CIP, compound @4 μg/ml): <=0.031 μg/mL
MIC ATB combined with Example ([7]; ATB ATM): 8 µg/mL
MIC ATB combined with Example ([7]; ATB FEP): 8 µg/mL
MIC ATB combined with Example ([7]; ATB FOS): >128 µg/mL
MIC ATB combined with Example ([7]; ATB MEM): 2 µg/mL
MIC ATB combined with Example ([7]; ATB PIP): 32 µg/mL
MIC ATB combined with Example compound ([7]; MIC of CIP): 0.125 µg/mL
MIC ATB combined with Example compound ([7]; MIC of CPO): 16 µg/mL
MIC [7, 15]: > 32 µg/mL
MIC ATB combined with Example ([8]; ATB ATM): 8 µg/mL
MIC ATB combined with Example ([8]; ATB FEP): 32 µg/mL
MIC ATB combined with Example ([8]; ATB FOS): 32 µg/mL
MIC ATB combined with Example ([8]; ATB MEM): 0.5 µg/mL
MIC ATB combined with Example ([8]; ATB PIP): 32 µg/mL
MIC ATB combined with Example compound ([8]; MIC of CIP): 4 µg/mL
MIC ATB combined with Example compound ([8]; MIC of CPO): >32 µg/mL
MIC [8, 15]: > 32 µg/mL
MIC ATB combined with Example ([9]; ATB ATM): 4 µg/mL
MIC ATB combined with Example ([9]; ATB FEP): 2 µg/mL
MIC ATB combined with Example ([9]; ATB FOS): 8 µg/mL
MIC ATB combined with Example ([9]; ATB MEM): 1 µg/mL
MIC ATB combined with Example ([9]; ATB PIP): 16 µg/mL
MIC ATB combined with Example compound ([9]; MIC of CIP): 1 µg/mL
MIC ATB combined with Example compound ([9]; MIC of CPO): 4 µg/mL
MIC [9, 15]: > 32 µg/mL
MIC ATB combined with Example ([10]; ATB ATM): >32 µg/mL
MIC ATB combined with Example ([10]; ATB FEP): 0.5 µg/mL
MIC ATB combined with Example ([10]; ATB FOS): 0.25 µg/mL
MIC ATB combined with Example ([10]; ATB MEM): <=0.031 μg/mL
MIC ATB combined with Example ([10]; ATB PIP): 0.5 µg/mL
MIC ATB combined with Example compound ([10]; MIC of CIP): <=0.031 μg/mL
MIC ATB combined with Example compound ([10]; MIC of CLI): <0.0010 µg/mL
MIC ATB combined with Example compound ([10]; MIC of CPO): 0.063 µg/mL
MIC ATB combined with Example compound ([10]; MIC of DAP): <=0.0020 μg/mL
MIC ATB combined with Example compound ([10]; MIC of ERY): <0.0020 µg/mL
MIC ATB combined with Example compound ([10]; MIC of LZD): 0.016 µg/mL
MIC ATB combined with Example compound ([10]; MIC of RIF): 0.0039 µg/mL
MIC ATB combined with Example compound ([10]; MIC of SYN): 0.063 µg/mL
MIC ATB combined with Example compound ([10]; MIC of VAN): 0.5 µg/mL
MIC ([10]; Staphylococcus aureus, substance alone, SAU 29213 (MSSA 29213), read-out: MIC): 4 µg/mL
MIC ATB combined with Example ([11]; ATB ATM): >32 µg/mL
MIC ATB combined with Example ([11]; ATB FEP): 0.063 µg/mL
MIC ATB combined with Example ([11]; ATB FOS): 16 µg/mL
MIC ATB combined with Example ([11]; ATB MEM): <=0.031 μg/mL
MIC ATB combined with Example ([11]; ATB PIP): 0.5 µg/mL
MIC ATB combined with Example compound ([11]; MIC of CIP): 0.25 µg/mL
MIC ATB combined with Example compound ([11]; MIC of CLI): 0.031 µg/mL
MIC ATB combined with Example compound ([11]; MIC of CPO): <=0.031 μg/mL
MIC ATB combined with Example compound ([11]; MIC of DAP): 0.125 µg/mL
MIC ATB combined with Example compound ([11]; MIC of ERY): 0.063 µg/mL
MIC ATB combined with Example compound ([11]; MIC of LZD): 0.25 µg/mL
MIC ATB combined with Example compound ([11]; MIC of RIF): 0.0078 µg/mL
MIC ATB combined with Example compound ([11]; MIC of SYN): 0.5 µg/mL
MIC ATB combined with Example compound ([11]; MIC of VAN): 0.125 µg/mL
MIC ([11]; Streptococcus pneumoniae, substance alone, read-out: MIC): 8 µg/mL
MIC [12]: > 32 µg/mL
MIC [13]: > 32 µg/mL
Compound: O=C1N2CC(n3cccn3)=C[C@H](C2)N1OS(=O)(=O)[O-].[Na+] [Example 15, sodium [(5R)-7-oxo-3-pyrazol-1-yl-1,6-diazabicyclo[3.2.1]oct-3-en-6-yl] sulfate]
